“Also recorded” adds a separate entry of the source.
Legend:
TP309-XA21 rice leaves = test system: TP309-XA21 rice leaves; set-up: species or system Oryza sativa ssp. japonica; details: in vivo
Myc-XA21 = molecular target: T1, Myc-XA21 (Oryza sativa subsp. indica, UniProt Q1MX30); experiment: Ax21/XA21 binding assay (cross-linking and co-immunoprecipitation); set-up: species or system rice; details: 5- to 10-fold excess competitor over HA-tagged AxY^S22; Myc-XA21 leaf extracts
T1 construct: expressed in transfected cells; host or cells: leaf extract of a Kitaake (Oryza sativa ssp. japonica) transgenic rice line carrying Myc-XA21
T1 sequence (Q1MX30 24-1025): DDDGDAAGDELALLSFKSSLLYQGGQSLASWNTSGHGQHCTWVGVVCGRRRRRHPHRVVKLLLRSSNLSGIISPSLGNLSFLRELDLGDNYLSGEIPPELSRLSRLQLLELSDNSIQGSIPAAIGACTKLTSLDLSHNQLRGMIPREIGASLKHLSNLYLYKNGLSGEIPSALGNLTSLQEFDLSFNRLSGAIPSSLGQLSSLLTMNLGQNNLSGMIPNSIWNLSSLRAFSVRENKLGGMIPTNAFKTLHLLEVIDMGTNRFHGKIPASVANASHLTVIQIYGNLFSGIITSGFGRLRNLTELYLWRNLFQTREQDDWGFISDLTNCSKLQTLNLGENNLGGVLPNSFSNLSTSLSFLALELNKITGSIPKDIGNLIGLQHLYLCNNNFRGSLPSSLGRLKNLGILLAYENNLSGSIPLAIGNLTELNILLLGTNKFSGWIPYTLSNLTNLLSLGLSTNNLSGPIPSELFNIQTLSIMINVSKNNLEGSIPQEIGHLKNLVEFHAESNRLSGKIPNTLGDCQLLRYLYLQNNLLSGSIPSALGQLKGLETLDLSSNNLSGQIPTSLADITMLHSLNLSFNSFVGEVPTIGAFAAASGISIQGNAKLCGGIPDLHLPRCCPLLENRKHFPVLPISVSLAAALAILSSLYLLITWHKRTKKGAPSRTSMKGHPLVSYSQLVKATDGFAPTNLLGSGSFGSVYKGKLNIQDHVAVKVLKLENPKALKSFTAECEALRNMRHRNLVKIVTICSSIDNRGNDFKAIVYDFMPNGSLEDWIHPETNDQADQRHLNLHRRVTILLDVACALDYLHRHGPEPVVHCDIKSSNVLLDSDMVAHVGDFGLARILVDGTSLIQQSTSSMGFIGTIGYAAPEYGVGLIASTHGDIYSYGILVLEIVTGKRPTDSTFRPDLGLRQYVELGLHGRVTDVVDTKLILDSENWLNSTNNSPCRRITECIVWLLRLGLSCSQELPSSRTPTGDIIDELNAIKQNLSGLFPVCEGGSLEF
Experimental: Binding of the C terminal HA tagged AxY^S22 (AxY^S22-HA) to N-terminal tagged Myc XA21 (Myc-XA21) complex was carried out using cross-linked analysis according to methods described previously (C. Zipfel et al., Cell 125, 749 (2006); Z. Bauer, L. Gomez-Gomez, T. Boller, G. Felix, J Biol Chem 276, 45669 (2001); D. Chinchilla, Z. Bauer, M. Regenass, T. Boller, G. Felix, Plant Cell 18, 465 (2006)). Fully expanded rice leaves were harvested from five-week old Myc-XA21 transgenic and Kitaake control plants. Total proteins were extracted from five g of leaf tissue in 10 ml of ice-cold extraction buffer [0.15 M NaCl, 0.01 M Na-phosphate pH 7.2, 2 mM EDTA, 0.1% Triton X-100, 10 mM β-mercaptoethanol, 20 mM NaF, 1 mM PMSF, 1% Protease cocktail (Sigma), 2 μg/ml leupeptin, 2 μg/ml antipain, and 2 μg/ml aprotinin] […] Duplicate protein gel blots were analyzed with anti-Myc and anti-HA antibodies, respectively.

PXO99ΔraxST = test system: PXO99ΔraxST; set-up: species or system Xanthomonas oryzae pv. oryzae; details: in vivo
OsFLS2 = OsFLS2 (Oryza sativa subsp. japonica, UniProt Q0JA29); details: in rice; cited from earlier work
[1] = molecular target: XA21 (in leaves of the TP309-XA21 transgenic rice line 106-17-3-37) (rice) (UniProt Q1MX30); experiment: cell-based or functional assay

OsFLS2, sequence (Q0JA29 42-1183): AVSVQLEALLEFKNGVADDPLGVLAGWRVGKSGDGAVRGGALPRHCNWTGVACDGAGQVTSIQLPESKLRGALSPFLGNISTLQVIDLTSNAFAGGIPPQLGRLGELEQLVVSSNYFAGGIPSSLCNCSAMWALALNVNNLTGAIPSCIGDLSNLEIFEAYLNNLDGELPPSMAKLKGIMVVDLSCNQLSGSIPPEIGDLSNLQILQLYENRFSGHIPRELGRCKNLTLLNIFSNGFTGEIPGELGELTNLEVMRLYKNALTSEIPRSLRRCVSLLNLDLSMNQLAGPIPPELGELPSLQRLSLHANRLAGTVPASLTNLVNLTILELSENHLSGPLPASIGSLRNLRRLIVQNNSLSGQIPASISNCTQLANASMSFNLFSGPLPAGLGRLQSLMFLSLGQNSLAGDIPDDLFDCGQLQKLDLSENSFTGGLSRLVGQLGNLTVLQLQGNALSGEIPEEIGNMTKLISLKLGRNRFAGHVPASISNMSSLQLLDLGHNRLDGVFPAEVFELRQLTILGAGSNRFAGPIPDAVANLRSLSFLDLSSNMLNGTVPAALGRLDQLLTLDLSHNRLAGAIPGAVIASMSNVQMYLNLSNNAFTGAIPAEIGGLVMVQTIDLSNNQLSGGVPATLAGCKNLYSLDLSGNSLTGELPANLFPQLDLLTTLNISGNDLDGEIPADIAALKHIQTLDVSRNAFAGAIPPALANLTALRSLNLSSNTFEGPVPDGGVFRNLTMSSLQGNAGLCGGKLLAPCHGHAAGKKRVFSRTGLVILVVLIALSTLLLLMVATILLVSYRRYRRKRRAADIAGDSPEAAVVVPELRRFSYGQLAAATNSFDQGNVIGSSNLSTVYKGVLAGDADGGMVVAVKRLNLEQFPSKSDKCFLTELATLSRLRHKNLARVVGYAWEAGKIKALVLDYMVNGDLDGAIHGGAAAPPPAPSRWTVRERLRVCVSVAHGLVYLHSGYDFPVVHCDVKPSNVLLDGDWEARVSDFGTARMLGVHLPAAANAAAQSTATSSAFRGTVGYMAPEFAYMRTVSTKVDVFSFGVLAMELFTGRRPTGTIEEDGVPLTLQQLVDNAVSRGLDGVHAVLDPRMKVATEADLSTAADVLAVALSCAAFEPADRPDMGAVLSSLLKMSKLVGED

Substance: Ax21: Activator of Xa21-mediated immunity; 194 aa protein encoded by PXO_03968
- extent of induced resistance (TP309-XA21 rice leaves): robust resistance

Substance: AENLS(sulfated Y)NFVEGDYVRTP [axY^S22]
- effect of competitor on labeling of the 140 kDa band (AxY^S22/XA21 binding) (Myc-XA21): suppressed the labeling of this band
- reduction in PXO99ΔraxST population growth (PXO99ΔraxST): 1000 fold
- triggering of XA21-mediated immunity (growth curve analysis) (PXO99ΔraxST): triggered resistance to PXO99ΔraxST; also recorded: triggers immunity in TP309-XA21 rice
- activation of XA21-mediated immunity (lesion length) (TP309-XA21 rice leaves): activated XA21-mediated immunity; also recorded: sufficient to activate XA21 mediated immunity
- concentration sufficient for PAMP activity (TP309-XA21 rice leaves): 1 µM

Substance: QRLSSGLRINSAKDDAAGLAIS (Acidovorax avenae flg22; listed as Acidovorax avenae) [flg22ave, flg22 from the rice pathogen Acidovorax avenae, reference compound]
- concentration that can induce OsFLS2-mediated response (OsFLS2): 0.5 µM
- effect of competitor on labeling of the 140 kDa band (AxY^S22/XA21 binding) (Myc-XA21): no effect on AxY^S22/XA21 binding

Substance: AxY^S22 peptide (no HA tag)
- concentration sufficient for PAMP activity (lesion length in TP309-XA21 rice) [1]: 1 µM
- reduction in PXO99ΔraxST population growth (growth curve analysis) [1]: 1000 fold

Substance: AENLSYNFVEGDYVRTP [axY22]
- triggering of XA21-mediated immunity (growth curve analysis) (PXO99ΔraxST): unable to trigger Xa21-mediated immunity; also recorded: no detectable activity

Source: patent US20120151636A1, “Peptides for Stimulating Plant Disease Resistance” (The Regents of the University of California, priority 2009, published 2012)
